Measurements reported in US6806269B1, “2-Amino-benzoxazinones for the treatment of herpes simplex virus” (G. D. Searle & Cop, priority 1999, dated 2004).
Read-outs that look alike come from different tables or passages of the source.

How the values were obtained:
[1] = target: T1, HSV-1 protease (assemblin) (Human herpesvirus 1, UniProt P10210); test: Enzymatic assay for HSV-1 protease (assemblin) inhibition (FP assay / HPLC assay); type: biochemical
T1 construct: encoding residues 1-288 of HSV-1 UL26 open reading frame and 32 heterologous amino acid; 6xHis (N); made in house
T1 sequence (P10210 1-288): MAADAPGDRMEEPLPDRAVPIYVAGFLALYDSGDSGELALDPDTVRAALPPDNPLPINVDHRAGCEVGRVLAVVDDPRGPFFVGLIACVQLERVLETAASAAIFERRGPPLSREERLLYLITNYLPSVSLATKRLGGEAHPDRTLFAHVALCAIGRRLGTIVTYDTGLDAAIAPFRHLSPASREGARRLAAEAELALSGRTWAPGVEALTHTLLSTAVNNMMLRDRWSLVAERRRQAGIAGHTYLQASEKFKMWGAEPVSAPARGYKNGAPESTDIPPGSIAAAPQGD
Experimental: Enzymatic Assay for HSV-1 Protease (Assemblin) Inhibition
Assemblin protease activity was determined using fluorescence polarization (FP). The fluorescent substrate was biotin-gamma-aminobutyrate -[…]-DTAF, based on the HSV-1release cleavage site. […] A change in molecular size of fluorescent substrate molecule, which was increased using avidin as a reaction stop reagent, allowed cleavage to be measured by FP. Potential protease inhibitors were dissolved in DMF and then diluted 5-fold in assay buffer. […] The enzyme was diluted to 21.3 ug/mL in assay buffer (1M NaCitrate, 50 mM NaPhosphate, pH 7.4, 100mM NaCl, 20% glycerol, 2 mM TECP) and 48.5 uL were added to each well. Following a 30 minute incubation at room temperature, 10 uL of 62.5 ug/mL substrate were added. After about 90 minute incubation at room temperature, 50 uL of 2 mg/mL avidin in phosphate buffer (50 mM Naphosphate, 100 mM NaCl, pH 7.4) were added to each well. The plates were read by a fluorescence polarization plate reader. Inhibitor potency was determined by comparison with incubations lacking inhibitor.
Assays were performed with the peptide substrate H-His-Thr-Tyr-Leu-Gln-Ala-Ser-Glu-Lys-Phe-Lys-Met-Trp-Gly-NH2 (Bachem). This substrate is a HSV-1-amide UL26 Open Reading Frame (242-255) and is derived from the release site of HSV-1 protease. HSV-1protease cleaves between alanine and serine. The product […] was quantified on HPLC using fluorescence detection of tryptophan residue. Enzyme was diluted to 4.3 ug/mL in assay buffer (1 M NaCitrate, 50 mM NaPhosphate, pH 7.3, 100 mM NaCl, 20% glycerol, 2 mM TCEP) and 48.5 uL were added to the tubes. Potential protease inhibitors were dissolved in DMF and then diluted 10-fold in assay buffer. 6.5 uL of inhibitor solution were added to each tube. Following a 30-minute incubation at room temperature, 10 uL of substrate in phosphate buffer (50 mM Naphosphate, 100 mM NaCl, pH 7.4) were added to all tubes. The final concentration of the substrate in the reaction mixtures was 10 uM. After a 15-minute incubation at room temperature, assays were quenched using 50 uL of 50% TCA. Inhibitor potency was determined by comparison with incubations lacking inhibitor, which under these conditions gave about 20% cleavage of substrate.
Recombinant HSV-1 Protease
HSV-1 protease was purified from baculovirus expressing a DNA construction encoding residues 1-288 of HSV-1 UL26 open reading frame and 32 heterologous amino acid. The construction also encoded six additional histidine residues at the amino terminus of the protease. These additional histidine residues provided an affinity ligand by which the protein was purified using Ni-NTA agarose gel (Qiagen). The purified protease was stored in stock solution (20 mM HEPES buffer, pH 8.5, containing 20% (v/v) glycerol). This stock was diluted with assay buffer to adequate concentration of enzymatic assay.
A specific substrate was synthesized based on the cleavage specificity of HSV-1 protease at the “release site” of the assembly protein (DiIanni, C. L., et al., J. Biol. Chem. 268, 2048, (1993)). The assembly protein release site has the sequence, HTYLQA*SEKFKMWG. The substrate used was biotin-gamma -aminobutyrate-HTYLQA*SERFRIK-DTAF which was prepared by standard peptide synthetic methods such as that described in Bodansky and Bodansky, “The Practice of Peptide Synthesis” (1984), and was stored as a stock solution at 2.5 mg/mL in DMF. This was diluted to 62.5 ug/mL with phosphate buffer (50 mM Naphosphate, […], pH 7.4) just before use.
The substrate was HSV-1-amide UL 26 Open Reading Frame (242-255), obtained from Bachem (Product No. M-2160).
An assay buffer (1 M NaCitrate, 50 mM NaPhosphate, pH 7.4, 100 mM NaCl, 20% glycerol, 2 mM TCEP) was used to dilute stock solutions of enzyme and inhibitors.

[2] = target: T2, Human leukocyte elastase (HLE) (Homo sapiens, UniProt P08246); test: Human leukocyte elastase assay; type: biochemical; settings: 50 μM compound; 30 minutes pre-incubation
T2 construct: purchased CALBIOCHEM
T2 sequence (P08246 30-267): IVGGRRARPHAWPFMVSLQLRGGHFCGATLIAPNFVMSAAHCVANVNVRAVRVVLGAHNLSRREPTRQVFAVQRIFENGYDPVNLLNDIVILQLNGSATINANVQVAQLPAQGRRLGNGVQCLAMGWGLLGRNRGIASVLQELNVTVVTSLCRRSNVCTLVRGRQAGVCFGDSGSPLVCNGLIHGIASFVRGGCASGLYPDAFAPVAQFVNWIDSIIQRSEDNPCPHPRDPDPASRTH
Experimental: Human Leukocyte Elastase Assay
Human leukocyte elastase (HLE) (CALBIOCHEM) was dissolved in saline at 1 mg/ml and further diluted 1/10 in assay buffer (0.2 M Tris, pH 8.0) before use.
0.75 μl of test compound in DMF (or DMF alone), 50 μl of assay buffer and 50 μl of enzyme were added to 96 well plate, mixed and pre-incubated for 30 minutes at ambient temperature. Reaction was initiated by addition of 50 μl of 2.5 mM methoxysuccinyl-Ala-Ala-Pro-Val-p-nitroanilide (Sigma; 25 mM in DMSO diluted 1/10 in assay buffer before use). The increase in absorbance at 405 nm was monitored for 3 min. with BIO-RAD model 3550 microplate reader.

[3] = target: T3, Bovine pancreas α-chymotripsin (Bos taurus, UniProt P00766); test: Chymotripsin assay; type: biochemical; settings: 50 μM compound; 30 minutes pre-incubation; read-out: INHIBITION AT 50 μM CHYMOTRYPSIN (%)
T3 construct: purchased Sigma type II; host or cells: bovine pancreas
Experimental: The chymotripsin assay was modified from the method of Delmar, et al. (Anal. Biochem. 99, 316-320 (1979)). Bovine pancreas α-chymotripsin(type II, Sigma) was dissolved in 0.001 N HCl at 1 mg/ml and further diluted 1/1000 in assay buffer (0.1 M Tris, pH 7.8 containing 0.1 M CaCl2) before use. 0.75 μl of test compound in DMF (or DMF alone), 50 μl of assay buffer and 50 μl of enzyme were added to 96 wells plates, mixed and pre-incubated for 30 minutes at ambient temperature. Reaction was initiated by addition of 50 μl of 0.2 mM N-succinyl-Ala-Ala-Pro-Phe-p-nitroanilide (Sigma; 2 mM in DMSO diluted 1/10 in assay buffer before use). The increase in absorbance at 405 nm was monitored for 3 minutes with BIO-RAD model 3550 microplate-reader.

HSV-1 = test: Antiviral assay: plaque reduction assay, HSV-1 in vero cells; type: cell-based, HSV-1 (vero cells, African green monkey kidney cell); settings: Human alphaherpesvirus 1, Vero, 72 h, read-out: ANTIVIRUS EC50
From the text: These complimentary assays tested the ability of a compound to inhibit the production of new virus and the toxicity of the compound to the host cells. It was important that both assays be performed simultaneously in order to compare the results directly since toxicity may indirectly reduce viral replication.
The antiviral assay was estimated by plaque reduction assay performed by following methods. 1×10^5 of vero cells (African green monkey kidney cell) in 48-well plates were over-night cultured and the medium of this culture was replaced with 200 μl of 2% FBS DMEM containing 2× the desired final cordon of test compounds or no compound as control. The cultures were added 50 μl of 2% FBS DMEM containing with about 50 plaque forming units of HSV-1and next 250 μl of 2% FBS DMEM containing 1% methylcellulose. These infected cultures were incubated at 37° C., 5% CO2 for 3 days until plaques was visible. The cells were fixed and stained simultaneously with 0.025% crystalviolet in 5% formalin solution and plaque were counted. The concentration of test compound which conferred 50% inhibition of plaque formation compared to no compound control was interpolated from the observed data and defined as IC50.

[4] = recombinant HSV-1 protease, 30 minute pre-incubation at room temperature, FP or HPLC format not stated, read-out: ENZYME IC50

Cc1cccc2nc(N(C)CCN3CCOCC3)oc(=O)c12 [CC6, reference compound]
IC50 [1, 4]: 11.8 µM | inhibition at 50 µM [2]: 99% | inhibition at 50 µM [3]: 97% | EC50 (HSV-1): > 50 µM

Cc1c(NC(=O)OC(C)(C)C)ccc2nc(N(C)C(C)C)oc(=O)c12 [Compound 10, 6-[[(1,1-Dimethylethoxy)carbonyl]amino]-5-methyl-2-[isopropyl(methyl)amino]-4H-3,1-benzoxazin-4-one]
IC50 [1, 4]: 7.8 µM | inhibition at 50 µM [2]: 0% | inhibition at 50 µM [3]: 0% | EC50 (HSV-1): 3.3 µM

CCN(CC)c1nc2cccc(C)c2c(=O)o1 [CC1, reference compound]
IC50 [1, 4]: 20 µM

Cc1c(NC(=O)OC(C)(C)C)ccc2nc(N3CCOCC3)oc(=O)c12 [Compound 6, 6-[[(1,1-Dimethylethoxy)carbonyl]amino]-5-methyl-2-(4-morpholyl)-4H-3,1-benzoxazin-4-one]
IC50 [1, 4]: 3.7 µM | inhibition at 50 µM [2]: 0% | inhibition at 50 µM [3]: 0% | EC50 (HSV-1): 2.9 µM

Cc1cccc2nc(N3CCN(C)CC3)oc(=O)c12 [CC5, reference compound]
IC50 [1]: 28 µM | inhibition at 50 µM [2]: 100% | inhibition at 50 µM [3]: 98% | EC50 (HSV-1): > 50 µM

Cc1c(NC(=O)OC(C)(C)C)ccc2nc(N3CCN(S(=O)(=O)c4ccccc4)CC3)oc(=O)c12 [Compound 15, 6-[[(1,1-Dimethylethoxy)carbonyl]amino]-5-methyl-2-[(4-benzenesulfonyl)-piperazinyl]-4H-3,1-benzoxazin-4-one]
IC50 [1, 4]: 1.7 µM | inhibition at 50 µM [2]: 0% | inhibition at 50 µM [3]: 0% | EC50 (HSV-1): 2.8 µM

Cc1cccc2nc(N(C)Cc3ccccc3)oc(=O)c12 [CC2, reference compound]
IC50 [1, 4]: 3.2 µM | inhibition at 50 µM [2]: 101% | inhibition at 50 µM [3]: 101% | EC50 (HSV-1): 7.5 µM

C=CCN(C)c1nc2ccc(NC(=O)OC(C)(C)C)c(C)c2c(=O)o1 [Compound 7, 6-[[(1,1-Dimethylethoxy)carbonyl]amino]-5-methyl-2-[allyl(methyl)amino]-4H-3,1-benzoxazin-4-one]
IC50 [1, 4]: 3.4 µM | inhibition at 50 µM [2]: 0% | inhibition at 50 µM [3]: 6.9% | EC50 (HSV-1): 4.1 µM

Cc1c(NC(=O)OC(C)(C)C)ccc2nc(N(C)Cc3ccc(N(C)C)cc3)oc(=O)c12 [Compound 4, 6-[[(1,1-Dimethylethoxy)carbonyl]amino]-5-methyl-2-[[[4-(dimethylamino)phenyl]methyl]methylamino]-4H-3,1-benzoxazin-4-one]
IC50 [1, 4]: 1.3 µM | inhibition at 50 µM [2]: 0% | inhibition at 50 µM [3]: 0% | EC50 (HSV-1): 0.05 µM

Cc1c(Br)ccc2nc(N(C)Cc3ccccc3)oc(=O)c12 [CC4, reference compound]
inhibition at 50 µM [2]: 98% | inhibition at 50 µM [3]: 102% | EC50 (HSV-1): 15 µM

Cc1c(NC(=O)c2ccccc2)ccc2nc(N(C)Cc3ccccc3)oc(=O)c12 [Compound 2, 6-(benzoylamino)-5-methyl-2-[methyl(phenylmethyl)amino]-4H-3,1-benzoxazin-4-one]
IC50 [1, 4]: 0.7 µM | inhibition at 50 µM [2]: 26% | inhibition at 50 µM [3]: 7% | EC50 (HSV-1): 4.6 µM

Cc1c(NC(=O)OC(C)(C)C)ccc2nc(N(C)Cc3ccccc3)oc(=O)c12 [Compound 1, 6-[[(1,1-Dimethylethoxy)carbonyl]amino]-5-methyl-2-[methyl(phenylmethyl)amino]-4H-3,1-benzoxazin-4-one]
IC50 [1, 4]: 0.6 µM | inhibition at 50 µM [2]: 32% | inhibition at 50 µM [3]: 13% | EC50 (HSV-1): 1.1 µM

Cc1c(NC(=O)c2c(F)cc(F)cc2F)ccc2nc(N(C(C)C)C(C)C)oc(=O)c12 [Compound 12, 6-[(2,4,6-Trifluorobenzoyl)amino]-5-methyl-2(diisopropylamino)-4H-3,1-benzoxazine-4-one]
IC50 [1, 4]: 6.3 µM | inhibition at 50 µM [2]: 13.4% | inhibition at 50 µM [3]: 22.4% | EC50 (HSV-1): 6.8 µM
